# Test results reported in patent publication US9695155B2, “Herbicidal substituted pyrimidinyloxy benzene compounds” (E. I. DU PONT DE NEMOURS AND COMPANY, priority 2013, dated 2017).
# Experiments:
# [1] = test system: morningglory; test: Test A postemergence; format: in vivo, Ipomoea spp.
# Source text: (§1) Seeds of plant species selected from barnyardgrass (Echinochloa crus-galli), kochia (Kochia scoparia), ragweed (common ragweed, Ambrosia elatior), Italian ryegrass (Lolium multiflorum), large (Lg) crabgrass (Digitaria sanguinalis), giant foxtail (Setaria faberii), morningglory (Ipomoea spp.), pigweed (Amaranthus retroflexus), velvetleaf (Abutilon theophrasti), wheat (Triticum aestivum), and corn (Zea mays) were planted into a blend of loam soil and sand and treated preemergence with a directed soil spray using test chemicals formulated in a non-phytotoxic solvent mixture which included a surfactant.
# (§2) At the same time, plants selected from these crop and weed species and also blackgrass (Alopecurus myosuroides), and galium (catchweed bedstraw, Galium aparine) were planted in pots containing the same blend of loam soil and sand and treated with postemergence applications of test chemicals formulated in the same manner. Plants ranged in height from 2 to 10 cm and were in the one- to two-leaf stage for the postemergence treatment. Treated plants and untreated controls were maintained in a greenhouse for approximately 10 days, after which time all treated plants were compared to untreated controls and visually evaluated for injury. Plant response ratings, summarized in Table A, are based on a 0 to 100 scale where 0 is no effect and 100 is complete control. A dash (-) response means no test result.
# [2] = test system: pigweed; test: Test A preemergence; format: in vivo, Amaranthus retroflexus; conditions: for Pigweed plant response rating: 500 g ai/ha
# Source text: as §1, §2
# [3] = test system: large (Lg) crabgrass; test: Test A preemergence; format: in vivo, Digitaria sanguinalis; conditions: for Crabgrass, Large plant response rating: 500 g ai/ha
# Summary of the method: (§3)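 Visual 0–100 rating (100 = complete control) taken about 10 d post-treatment relative to untreated checks. Preemergence: directed soil spray on sown loam/sand pots. Postemergence: seedlings 2–10 cm, 1–2 leaf. Non-phytotoxic solvent formulation with surfactant.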
# [4] = test system: barnyardgrass; test: Test A preemergence; format: in vivo, Echinochloa crus-galli; conditions: for Barnyardgrass plant response rating: 500 g ai/ha
# Source text: as §1, §2
# [5] = test system: Heteranthera limosa; test: Test B flooded paddy test; format: in vivo; conditions: Flood, 250 g ai/ha; 0 to 100 scale where 0 is no effect and 100 is complete control
# Summary of the method: (§4)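 Post-emergence paddy-water application at the 2-leaf stage, with 3 cm flood kept for the whole test. Response was judged visually relative to controls after 13 to 15 greenhouse days, 0 indicating no effect and 100 complete control.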
# [6] = test system: rice; test: Test B flooded paddy test; format: in vivo, Oryza sativa; conditions: Flood, 250 g ai/ha; 0 to 100 scale where 0 is no effect and 100 is complete control
# Protocol: (§5) Plant species in the flooded paddy test selected from rice (Oryza sativa), sedge, umbrella (small-flower umbrella sedge, Cyperus difformis), (Heteranthera limosa), and barnyardgrass (Echinochloa crus-galli) were grown to the 2-leaf stage for testing. At time of treatment, test pots were flooded to 3 cm above the soil surface, treated by application of test compounds directly to the paddy water, and then maintained at that water depth for the duration of the test. Treated plants and controls were maintained in a greenhouse for 13 to 15 days, after which time all species were compared to controls and visually evaluated. Plant response ratings, summarized in Table B, are based on a scale of 0 to 100 where 0 is no effect and 100 is complete control. A dash (-) response means no test result.
# [7] = test system: sedge, umbrella; test: Test B flooded paddy test; format: in vivo, Cyperus difformis; conditions: Flood, 250 g ai/ha; 0 to 100 scale where 0 is no effect and 100 is complete control
# Protocol: as §5
# [8] = test system: corn; test: Test A preemergence; format: in vivo, Zea mays; conditions: for Corn plant response rating: 500 g ai/ha
# Summary of the method: as §3
# [9] = test system: barnyardgrass; test: Test B flooded paddy test; format: in vivo, Echinochloa crus-galli; conditions: Flood, 250 g ai/ha; 0 to 100 scale where 0 is no effect and 100 is complete control
# Summary of the method: as §4
# [10] = test system: pigweed; test: Test A postemergence; format: in vivo, Amaranthus retroflexus
# Source text: as §1, §2
# [11] = test system: barnyardgrass; test: Test A postemergence; format: in vivo, Echinochloa crus-galli
# Summary of the method: as §3
# [12] = test system: morningglory; test: Test A preemergence; format: in vivo, Ipomoea spp.; conditions: for Morningglory plant response rating: 500 g ai/ha
# Summary of the method: as §3
# [13] = test system: large (Lg) crabgrass; test: Test A postemergence; format: in vivo, Digitaria sanguinalis
# Summary of the method: as §3
# [14] = test system: giant foxtail; test: Test A postemergence; format: in vivo, Setaria faberii
# Summary of the method: as §3
# [15] = test system: wheat; test: Test A postemergence; format: in vivo, Triticum aestivum
# Source text: as §1, §2
# [16] = test system: velvetleaf; test: Test A postemergence; format: in vivo, Abutilon theophrasti
# Source text: as §1, §2
# [17] = test system: wheat; test: Test A preemergence; format: in vivo, Triticum aestivum; conditions: for Wheat plant response rating: 500 g ai/ha
# Summary of the method: as §3
# [18] = test system: velvetleaf; test: Test A preemergence; format: in vivo, Abutilon theophrasti; conditions: for Velvetleaf plant response rating: 500 g ai/ha
# Summary of the method: as §3
# [19] = test system: giant foxtail; test: Test A preemergence; format: in vivo, Setaria faberii; conditions: for Foxtail, Giant plant response rating: 500 g ai/ha
# Source text: as §1, §2
# [20] = test system: corn; test: Test A postemergence; format: in vivo, Zea mays
# Summary of the method: as §3
# [21] = 125 g ai/ha, 0 to 100 scale where 0 is no effect and 100 is complete control
# [22] = 500 g ai/ha, 0 to 100 scale, 0 no effect, 100 complete control
# [23] = 0 to 100 scale, 0 no effect, 100 complete control, approx. 10 days
# [24] = 500 g ai/ha, 0 to 100 scale where 0 is no effect and 100 is complete control
# [25] = 0 to 100 scale where 0 is no effect and 100 is complete control
compound,measurement,setting,value
Clc1cnc(Oc2cc(Cl)ccc2-n2cc(Br)cn2)nc1 [Compound 51],"Plant response rating, Morningglory",[1]; [21],10
same,"Plant response rating, Morningglory",[1]; [22],20
same,"Plant response rating, Pigweed",[2]; [21],10
same,Pigweed plant response rating,[2]; [23],80
same,"Plant response rating, Crabgrass, Large",[3]; [21],40
same,"Crabgrass, Large plant response rating",[3]; [23],90
same,"Plant response rating, Barnyardgrass",[4]; [21],20
same,Barnyardgrass plant response rating,[4]; [23],30
same,"Plant response rating, Ducksalad",[5],40
same,"Plant response rating, Rice",[6],0
same,"Plant response rating, Sedge, Umbrella",[7],65
same,"Plant response rating, Corn",[8]; [21],0
same,Corn plant response rating,[8]; [23],0
same,"Plant response rating, Barnyardgrass",[9],0
same,"Plant response rating, Pigweed",[10]; [21],30
same,"Plant response rating, Pigweed",[10]; [22],70
same,"Plant response rating, Barnyardgrass",[11]; [21],0
same,"Plant response rating, Barnyardgrass",[11]; [22],10
same,"Plant response rating, Morningglory",[12]; [21],0
same,Morningglory plant response rating,[12]; [23],0
same,"Plant response rating, Crabgrass, Large",[13]; [21],0
same,"Plant response rating, Crabgrass, Large",[13]; [22],20
same,"Plant response rating, Foxtail, Giant",[14]; [21],0
same,"Plant response rating, Foxtail, Giant",[14]; [22],10
same,"Plant response rating, Wheat",[15]; [21],0
same,"Plant response rating, Wheat",[15]; [22],0
same,"Plant response rating, Velvetleaf",[16]; [21],50
same,"Plant response rating, Velvetleaf",[16]; [22],60
same,"Plant response rating, Wheat",[17]; [21],0
same,Wheat plant response rating,[17]; [23],0
same,"Plant response rating, Velvetleaf",[18]; [21],0
same,Velvetleaf plant response rating,[18]; [23],0
same,"Plant response rating, Foxtail, Giant",[19]; [21],20
same,"Foxtail, Giant plant response rating",[19]; [23],80
same,"Plant response rating, Corn",[20]; [21],0
same,"Plant response rating, Corn",[20]; [22],20
C=C(C)c1cnn(-c2ccccc2Oc2ncc(Cl)cn2)c1 [Compound 32],"Plant response rating, Morningglory",[1]; [21],0
same,"Plant response rating, Morningglory",[1]; [22],0
same,"Plant response rating, Pigweed",[2]; [21],0
same,Pigweed plant response rating,[2]; [23],40
same,"Plant response rating, Crabgrass, Large",[3]; [21],0
same,"Crabgrass, Large plant response rating",[3]; [23],60
same,"Plant response rating, Barnyardgrass",[4]; [21],0
same,Barnyardgrass plant response rating,[4]; [23],60
same,"Plant response rating, Ducksalad",[5],0
same,"Plant response rating, Rice",[6],15
same,"Plant response rating, Sedge, Umbrella",[7],0
same,"Plant response rating, Corn",[8]; [21],0
same,Corn plant response rating,[8]; [23],0
same,"Plant response rating, Barnyardgrass",[9],0
same,"Plant response rating, Pigweed",[10]; [21],50
same,"Plant response rating, Pigweed",[10]; [22],70
same,"Plant response rating, Barnyardgrass",[11]; [21],0
same,"Plant response rating, Barnyardgrass",[11]; [22],20
same,"Plant response rating, Morningglory",[12]; [21],0
same,Morningglory plant response rating,[12]; [23],0
same,"Plant response rating, Crabgrass, Large",[13]; [21],50
same,"Plant response rating, Crabgrass, Large",[13]; [22],50
same,"Plant response rating, Foxtail, Giant",[14]; [21],0
same,"Plant response rating, Foxtail, Giant",[14]; [22],30
same,"Plant response rating, Wheat",[15]; [21],0
same,"Plant response rating, Wheat",[15]; [22],0
same,"Plant response rating, Velvetleaf",[16]; [21],80
same,"Plant response rating, Velvetleaf",[16]; [22],100
same,"Plant response rating, Wheat",[17]; [21],0
same,Wheat plant response rating,[17]; [23],0
same,"Plant response rating, Velvetleaf",[18]; [21],10
same,Velvetleaf plant response rating,[18]; [23],70
same,"Plant response rating, Foxtail, Giant",[19]; [21],0
same,"Foxtail, Giant plant response rating",[19]; [23],70
same,"Plant response rating, Corn",[20]; [21],0
same,"Plant response rating, Corn",[20]; [22],20
C#Cc1cccc(Oc2ncc(Cl)cn2)c1-n1cc(Br)cn1 [Compound 199],Morningglory plant response rating,[1]; [21],40
same,"Plant response rating, Morningglory",[1]; [24],60
same,Pigweed plant response rating (0 to 100 scale),[2]; 125 g ai/ha,90
same,Pigweed plant response rating,[2]; [25],100
same,"Crabgrass, Large plant response rating (0 to 100 scale)",[3]; 125 g ai/ha,100
same,"Crabgrass, Large plant response rating",[3]; [25],100
same,"Barnyardgrass plant response rating (0 to 100 scale, 0 is no effect, 100 is complete control)",[4]; 125 g ai/ha,20
same,Barnyardgrass plant response rating,[4]; [25],80
same,"Plant response rating, Ducksalad",[5],70
same,"Plant response rating, Rice",[6],20
same,"Plant response rating, Sedge, Umbrella",[7],70
same,Corn plant response rating (0 to 100 scale),[8]; 125 g ai/ha,0
same,Corn plant response rating,[8]; [25],0
same,"Plant response rating, Barnyardgrass",[9],0
same,Pigweed plant response rating,[10]; [21],80
same,"Plant response rating, Pigweed",[10]; [24],100
same,Barnyardgrass plant response rating,[11]; [21],30
same,"Plant response rating, Barnyardgrass",[11]; [24],80
same,Morningglory plant response rating (0 to 100 scale),[12]; 125 g ai/ha,0
same,Morningglory plant response rating,[12]; [25],20
same,"Crabgrass, Large plant response rating",[13]; [21],40
same,"Plant response rating, Crabgrass, Large",[13]; [24],90
same,"Foxtail, Giant plant response rating",[14]; [21],70
same,"Plant response rating, Foxtail, Giant",[14]; [24],90
same,Wheat plant response rating,[15]; [21],0
same,"Plant response rating, Wheat",[15]; [24],30
same,Velvetleaf plant response rating,[16]; [21],70
same,"Plant response rating, Velvetleaf",[16]; [24],100
same,Wheat plant response rating (0 to 100 scale),[17]; 125 g ai/ha,0
same,Wheat plant response rating,[17]; [25],0
same,Velvetleaf plant response rating (0 to 100 scale),[18]; 125 g ai/ha,20
same,Velvetleaf plant response rating,[18]; [25],90
same,"Foxtail, Giant plant response rating (0 to 100 scale)",[19]; 125 g ai/ha,90
same,"Foxtail, Giant plant response rating",[19]; [25],100
same,Corn plant response rating,[20]; [21],20
same,"Plant response rating, Corn",[20]; [24],60
N#Cc1cccc(Oc2ncc(C(F)(F)F)cn2)c1-n1cc(Br)cn1 [Compound 113],"Plant response rating, Morningglory",[1]; [24],30
same,"Plant response rating, Pigweed",[2]; [21],100
same,Pigweed plant response rating,[2]; [23],100
same,"Plant response rating, Crabgrass, Large",[3]; [21],80
same,"Crabgrass, Large plant response rating",[3]; [23],100
same,"Plant response rating, Barnyardgrass",[4]; [21],0
same,Barnyardgrass plant response rating,[4]; [23],90
same,"Plant response rating, Ducksalad",[5],0
same,"Plant response rating, Rice",[6],0
same,"Plant response rating, Sedge, Umbrella",[7],0
same,"Plant response rating, Corn",[8]; [21],0
same,Corn plant response rating,[8]; [23],20
same,"Plant response rating, Barnyardgrass",[9],0
same,"Plant response rating, Pigweed",[10]; [24],80
same,"Plant response rating, Barnyardgrass",[11]; [21],0
same,"Plant response rating, Barnyardgrass",[11]; [24],80
same,"Plant response rating, Morningglory",[12]; [21],0
same,Morningglory plant response rating,[12]; [23],30
same,"Plant response rating, Crabgrass, Large",[13]; [21],20
same,"Plant response rating, Crabgrass, Large",[13]; [24],70
same,"Plant response rating, Foxtail, Giant",[14]; [21],10
same,"Plant response rating, Foxtail, Giant",[14]; [24],60
same,"Plant response rating, Wheat",[15]; [24],60
same,"Plant response rating, Velvetleaf",[16]; [24],80
same,"Plant response rating, Wheat",[17]; [21],0
same,"Plant response rating, Velvetleaf",[18]; [21],10
same,"Plant response rating, Foxtail, Giant",[19]; [21],20
same,"Foxtail, Giant plant response rating",[19]; [23],90
same,"Plant response rating, Corn",[20]; [21],10
same,"Plant response rating, Corn",[20]; [24],60
